{"source": "patent US10945972B2", "about": "“Particulate materials” (Nektar Therapeutics, priority 2002, dated 2021)", "format_in_all_cases": "physicochemical", "key": {"[1]": {"assay": "Particle size by AeroSizer time-of-flight (Example 1)", "conditions": "aerodynamic-equivalent volume mean diameter"}, "[2]": {"assay": "Particle size by Helos/Rodos laser diffraction (Example 1)", "conditions": "geometric projection-equivalent volume mean diameter"}, "[3]": {"assay": "AEROSIZER time-of-flight of TBS (Example 8)", "conditions": "listed as TBS 2", "description": "The TBS samples were also analysed using an AEROSIZER™ (Amherst Process Instruments, Amherst, Mass., USA), provided with pulse jet disperser, the AERODISPERSER™, to introduce the powders to the instrument. The measurement range of the AEROSIZER™ is nominally from 0.2 to 200 μm of aerodynamic diameter with the standard 750 μm diameter tapered nozzle. The micronized and SEDS™ TBS samples were analyzed for 300 seconds in triplicate using normal deagglomeration conditions, feed rate (5000 particles per second) and medium shear force (0.5 psi)."}, "[4]": {"assay": "Dynamic vapor sorption (Example 8)", "conditions": "25° C.", "description": "The moisture sorption isotherm of each powder at 25° C. was measured using a dynamic vapour sorption (DVS) instrument made by Surface Measurement Systems, UK. This instrument gravimetrically measures uptake and loss of water vapor on a substrate by means of a recording microbalance with a resolution of ±0.1 μg. In the first step of the experimental run, the sample was dried at 25° C. and 0% relative humidity (RH) for at least 600 minutes to bring the sample to near zero wt % H2O. Then, the instrument was programmed to increase the RH in steps of 5% RH from 0% to 90% RH and decrease the RH in steps of 10% RH from 90% to 0% RH. A criterion of dm/dt=0.005%/min was chosen for the system to hold at each RH step before proceeding to the next RH step. Sample masses between 30 and 100 mg were used in this study. The change in mass (%) is expressed in terms of g H2O per 100 g of dry substance."}, "[5]": {"assay": "Isothermal microcalorimetry, TAM with RH ramp (Example 8)", "conditions": "25° C., RH ramp 0 to 90% at 3% RH/hr; listed as TBS2", "description": "A Thermal Activity Monitor (TAM, model 2277; Thermometric A B, Jrflla, Sweden) was used to measure the calorimetric heat flow (μW) vs. % RH profile of each sample. A RH-perfusion cell (Model 2255-120) accessory for the TAM was used to control RH within the sample vessel. The carrier gas, dry N2, was flowed at a constant rate (1.48 cm^3/min). All experiments were performed at 25° C. About 100 to 105 mg accurately weighed of each powder were placed in a stainless steel ampoule, attached to the RH perfusion cell, and then dried under 0% RH until a stable heat flow signal was reached (e.g., a signal within the range of −1 to +1 μW). The RH was then increased in a linear ramp from 0 to 90% over the following 30 hours (i.e., 3% RH/hr). The heat flow arising from interactions of water vapor with the solid sample was measured as a function of time. Since RH changed with time in a linear fashion, the heat flow was also known as a function of RH.\nThe TAM measures the total heat flow in power, P, produced from either a physical or chemical reaction. In this study, the calorimetric power is proportional to the rate of moisture sorption or desorption, crystallization, and/or other processes. Exothermic events are measured as a deflection in the positive y-axis direction. Although crystallization is an exothermic process, it can be observed as a net endothermic process. During crystallization, there is an exotherm due to crystallization and a simultaneous endotherm due to desorption of previously sorbed moisture. The TAM profile gives the resultant of these processes."}, "[6]": {"assay": "Inverse gas chromatography of TBS (Example 8)", "description": "An empty GC column was uniformly packed with the powder of interest (TBS). Pre-silanized commercially available straight glass columns of 30 cm length with a 3 mm internal diameter were used in this investigation. The silanation procedure was necessary to minimize active sites on the inner glass surfaces, which strongly interact with polar probes. Each column was packed at the detector end with a small amount of silanised glass wool, was clipped to a stand and powder was added through a glass funnel with the aid of a mechanical column packer (tapping) to improve powder flow and remove any air gaps. […] A. Hewlett Packard 6890 Series Gas Chromatograph (GC) (Hewlett Packard, Penna, USA) oven equipped with an autosampler was used to control the solvent temperature. The 6890 GC data acquisition system was used to record data from a thermal conductivity detector (TCD) and flame ionisation detector (FID) with the instrument modified for IGC by Surface Measurement Systems (SMS), Manchester, UK. The combination of detectors allowed sensitive analysis of both organic vapour elution and water (although RH was not raised above 0% for these experiments).\nThe whole system was fully automated by control software (SMS iGC Controller v1.3) and the data analyzed using SMS iGC Analysis macros. Prior to analysis, each column was equilibrated at 30° C. and 0% relative humidity (RH) for 5 hours by passing dry helium gas through the column. Helium gas was also used as the carrier gas. Hydrogen and compressed air flow rates were set at 40 and 450 ml min respectively for the FID. The chromatograph injection port was maintained at 80° C., TCD detector at 150° C. and the FID detector at 150° C. Column temperature was set at 30° C. throughout analysis. Data were obtained by flowing helium gas at 10 ml min^−1 through the sinalized glass column packed with a known weight of powdered material and injecting small amounts (concentration P/Po=0.05) of a range of probe vapors with different polarities. The retention times of the probes were measured using SMS iGC Controller v1.3 software, at infinite dilution or near zero surface coverage (equivalent to 10^−4-10^−7 μl of liquid) where retention is independent of the quantity of probe injected. For each sample, two columns were prepared and analysed by employing a method based on standard settings, which allows the precise control and measurement of experimental variables. This is essential in producing meaningful results. The data were used to calculate the dispersive and non-dispersive forces acting at TBS particle surfaces using the method developed by Schultz and co-workers (J. Schultz, L. Lavielle and C. Martin. The role of the interface in carbon fibre-epoxy composites, J. Adhesion, 23, 45-60 (1987))."}}}
{"compound": "CC(C)(C)NCC(O)c1cc(O)cc(O)c1", "note": "(centres unmarked) [TSB SEDS, terbutaline sulphate]", "values": [{"measurement": "VMD (μm) (Time of flight)", "setting": "[1]", "result": 3.4, "unit": "μm"}, {"measurement": "VMD (μm) (laser diffraction)", "setting": "[2]", "result": 3.43, "unit": "μm"}, {"measurement": "Aerosizer D4, 3 (μm)", "setting": "[3]", "result": 3.44, "unit": "μm"}, {"measurement": "moisture uptake compared with micronised sample", "setting": "[4]", "result": "slightly higher moisture uptake than the micronised sample"}, {"measurement": "RH of thermal event in TAM profile", "setting": "[5]", "result": "about 85 % RH"}, {"measurement": "γs^D mJm^−2", "setting": "[6]; 30° C., 0% RH, listed as TBS 2", "result": 55.05, "unit": "mJm^−2"}, {"measurement": "KA", "setting": "[6]; listed as TBS 2", "result": 0.778}, {"measurement": "−ΔGA^SP (kJ/mol) Acetone", "setting": "[6]; probe acetone, listed as TBS 2", "result": 10.42, "unit": "kJ/mol"}, {"measurement": "−ΔGA^SP (kJ/mol) Dioxane", "setting": "[6]; probe dioxane", "result": 14.20, "unit": "kJ/mol"}, {"measurement": "−ΔGA^SP (kJ/mol) Ethyl acetate", "setting": "[6]; probe ethyl acetate, listed as TBS 2", "result": 13.76, "unit": "kJ/mol"}, {"measurement": "−ΔGA^SP (kJ/mol) Toluene", "setting": "[6]; probe toluene, listed as TBS 2", "result": 2.85, "unit": "kJ/mol"}]}
